The record followed here is patent US11230526B1, “Cylcoalkenyl derivatives useful as agonists of the GPR120 and/or GPR40 receptors” (Janssen Pharmaceutica NV, priority 2018, dated 2022).

Holding throughout (assay type): cell-based
The target of one assay is T1, Human GPR120 short form (Homo sapiens, UniProt Q5NUL3).
T1 construct: expressed in transfected cells
T1 sequence (Q5NUL3 1-361): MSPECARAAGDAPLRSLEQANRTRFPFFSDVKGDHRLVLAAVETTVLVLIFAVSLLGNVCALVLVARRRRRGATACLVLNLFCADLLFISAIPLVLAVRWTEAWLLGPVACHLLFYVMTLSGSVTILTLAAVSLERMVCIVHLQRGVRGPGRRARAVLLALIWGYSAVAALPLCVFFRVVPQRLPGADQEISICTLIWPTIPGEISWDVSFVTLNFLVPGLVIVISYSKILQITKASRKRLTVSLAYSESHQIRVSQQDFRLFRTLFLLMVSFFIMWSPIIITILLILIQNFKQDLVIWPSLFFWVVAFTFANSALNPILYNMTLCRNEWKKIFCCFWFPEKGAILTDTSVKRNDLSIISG
Kind of assay: Human GPR120 calcium flux assay, Procedure Calcium B (4200 cells/well). The method, boiled down: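 Agonist EC50 came from a four-parameter fit of RFU (Fmax−Fmin) read over 300 s on FLIPR. Cells were HEK293 stably transfected with human GPR120 (NM_001195755.1) at 4200 per well, serum-starved 1 h and loaded with Fluo-4 NW dye with probenecid before ligand addition.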

A further assay concerns the target T2, human GPR40 (Homo sapiens, UniProt O14842).
T2 construct: expressed in transfected cells
Kind of assay: GPR40 calcium flux assay, human GPR40. To be noted: HEK293 cells stably expressing GPR40; table does not say human or rat. The method, boiled down: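 Cells preincubated 1 h at 37° C. in HBSS, 20 mM HEPES, 0.1% BSA, then Fluo 8 calcium dye 30 min at 37° C. and 15 min at room temperature.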

Assay [1] deals with T3, long form of human GPR120 (Homo sapiens, UniProt Q5NUL3).
T3 construct: host or cells: PathHunter CHO-K1 GPR120 β-Arrestin Cell Line
The experiment in a line: Human GPR120 DiscoveRx PathHunter Beta-Arrestin assay, Procedure β-arrestin A. The method, boiled down: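 PathHunter CHO-K1 cells expressing long-form human GPR120 (3000/well) were seeded overnight. They were then preincubated 60 min in HBSS with 20 mM HEPES and 0.1% BSA, pH 7.4, and exposed to compound for 90 min at 37 °C. β-Arrestin recruitment was read as β-gal complementation luminescence. EC50 came from % activity versus positive control, Hill slope fixed at 1.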

T3 sequence (Q5NUL3 1-377 isoform Q5NUL3-1): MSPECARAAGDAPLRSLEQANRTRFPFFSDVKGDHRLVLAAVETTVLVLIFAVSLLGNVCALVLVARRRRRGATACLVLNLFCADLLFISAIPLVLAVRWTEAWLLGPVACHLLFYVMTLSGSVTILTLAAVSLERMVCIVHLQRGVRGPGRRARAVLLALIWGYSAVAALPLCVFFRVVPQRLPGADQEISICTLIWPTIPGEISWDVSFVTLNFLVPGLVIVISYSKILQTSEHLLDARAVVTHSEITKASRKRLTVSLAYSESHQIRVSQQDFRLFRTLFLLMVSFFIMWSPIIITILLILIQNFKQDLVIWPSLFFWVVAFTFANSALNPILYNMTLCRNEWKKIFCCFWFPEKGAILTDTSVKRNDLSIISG
T3 sequence (P32121 whole entry partner): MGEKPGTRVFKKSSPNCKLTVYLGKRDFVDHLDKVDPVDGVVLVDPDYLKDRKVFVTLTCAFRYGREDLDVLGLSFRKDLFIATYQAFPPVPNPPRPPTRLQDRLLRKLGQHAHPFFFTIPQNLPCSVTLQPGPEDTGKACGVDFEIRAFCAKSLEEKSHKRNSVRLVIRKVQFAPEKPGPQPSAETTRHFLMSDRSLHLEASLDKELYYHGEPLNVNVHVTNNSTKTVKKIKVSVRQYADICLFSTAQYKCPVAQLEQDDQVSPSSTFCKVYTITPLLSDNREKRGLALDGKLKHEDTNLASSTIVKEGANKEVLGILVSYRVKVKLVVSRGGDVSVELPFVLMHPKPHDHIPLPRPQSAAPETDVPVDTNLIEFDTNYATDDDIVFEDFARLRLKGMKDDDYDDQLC
T2 sequence (O14842 whole entry): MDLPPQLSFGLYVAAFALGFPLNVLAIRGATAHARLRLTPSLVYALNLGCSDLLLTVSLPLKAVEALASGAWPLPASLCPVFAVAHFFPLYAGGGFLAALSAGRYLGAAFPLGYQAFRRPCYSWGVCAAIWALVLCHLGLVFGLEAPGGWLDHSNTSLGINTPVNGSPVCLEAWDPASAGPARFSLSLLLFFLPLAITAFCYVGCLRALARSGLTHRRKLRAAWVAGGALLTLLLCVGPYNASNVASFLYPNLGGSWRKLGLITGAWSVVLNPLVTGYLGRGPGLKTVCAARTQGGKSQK

The term EC50 denotes the concentration giving half of the maximal effect. On to `COc1ncc(C2=C(COc3c(F)cc(CCC(=O)O)cc3F)CCC2)cc1F` [Compound 224, 3-[3,5-difluoro-4-[[2-(5-fluoro-6-methoxy-3-pyridyl)cyclopenten-1-yl]methoxy]phenyl]Propanoic Acid], for which the EC50 at Human GPR120 short form was 285 nM; at human GPR40, above 5000 nM; in assay [1], 231 nM.

On to `Cc1cc(CCC(=O)O)ccc1OCC1=C(c2ccc(Cl)cc2)CC(F)(F)C1` [Compound 166, 3-[4-[[2-(4-chlorophenyl)-4,4-difluoro-cyclopenten-1-yl]methoxy]-3-methyl-phenyl]Propanoic Acid], for which the EC50 came to 24 nM on Human GPR120 short form, 4000 nM at human GPR40 and 29 nM in assay [1].

With `Cc1ccc(C2=C(COc3c(F)cc(CCC(=O)O)cc3F)CC(F)(F)CC2)cc1F` [Compound 525, 3-[4-[[5,5-difluoro-2-(3-fluoro-4-methyl-phenyl)cyclohexen-1-yl]methoxy]-3,5-difluoro-phenyl]Propanoic Acid], the figures for the EC50 (at Human GPR120 short form; at human GPR40; in assay [1]) were 165 nM, 4030 nM and 121 nM, respectively.

Regarding `Cc1cc(CCC(=O)O)cc(F)c1OCC1=C(c2ccc(F)cc2)CC(F)(F)C1` [Compound 204, 3-[4-[[4,4-difluoro-2-(4-fluorophenyl)cyclopenten-1-yl]methoxy]-3-fluoro-5-methyl-phenyl]Propanoic Acid], the EC50 at Human GPR120 short form is 125 nM; at human GPR40 it was above 5000 nM; in assay [1] it was 359 nM.

Consider `Cc1cc(OCC2=C(c3ccc(Cl)cc3)CCC2)c(Br)cc1CCC(=O)O` [Compound 67], for which the figures for the concentration for a half-maximal effect (EC50) (on Human GPR120 short form; at human GPR40; in assay [1]) were 73 nM, above 5000 nM and 167 nM, respectively.

As for `Cc1cc(CCC(=O)O)ccc1OCC1=C(c2ccc(F)cc2)CC(F)(F)C1` [Compound 180, 3-[4-[[4,4-difluoro-2-(4-fluorophenyl)cyclopenten-1-yl]methoxy]-3-methyl-phenyl]Propanoic Acid], the EC50 at Human GPR120 short form was 26 nM; on human GPR40, above 5000 nM; in assay [1], 78 nM.

Turning to `Cc1c(CCC(=O)O)ccc(OCC2=C(c3ccc(Cl)cc3)CCC(C(C)C)C2)c1C` (stereo not drawn) [Compound 501, 3-[4-[[2-(4-chlorophenyl)-5-isopropyl-cyclohexen-1-yl]methoxy]-2,3-dimethyl-phenyl]Propanoic Acid], the EC50 is 364 nM on Human GPR120 short form, above 5000 nM on human GPR40 and 155 nM in assay [1].

For the molecule `CC(C)c1cc(OCC2=C(c3ccc(Cl)cc3)CCC2)ccc1CCC(=O)O` [Compound 167, 3-[4-[[2-(4-chlorophenyl)cyclopenten-1-yl]methoxy]-2-isopropyl-phenyl]Propanoic Acid], the EC50 is 503 nM at Human GPR120 short form, 1250 nM on human GPR40 and 727 nM in assay [1].

As for `N#CC1CC(COc2c(F)cc(CCC(=O)O)cc2F)=C(c2ccc(Cl)cc2)C1` (stereo not drawn) [Compound 185, 3-[4-[[2-(4-chlorophenyl)-4-cyano-cyclopenten-1-yl]methoxy]-3,5-difluoro-phenyl]Propanoic Acid], the EC50 was determined as 360 nM on Human GPR120 short form, 3440 nM at human GPR40 and 1440 nM in assay [1].

With `Cc1ccc(C2=C(COc3c(F)cc(CCC(=O)O)cc3F)CC(F)(F)CC2)s1` [Compound 562, 3-[4-[[5,5-difluoro-2-(5-methyl-2-thienyl)cyclohexen-1-yl]methoxy]-3,5-difluoro-phenyl]Propanoic Acid], the EC50 on Human GPR120 short form is 119 nM; at human GPR40 it was above 5000 nM; in assay [1], 245 nM.

For the molecule `Cc1cc(CCC(=O)O)ccc1OCC1=C(c2ccccc2)CC(F)(F)C1` [Compound 193, 3-[4-[(4,4-difluoro-2-phenyl-cyclopenten-1-yl)methoxy]-3-methyl-phenyl]Propanoic Acid], the values for the 50% effective concentration (EC50) (on Human GPR120 short form; at human GPR40; in assay [1]) were 30 nM, above 5000 nM and 133 nM, respectively.

For `Cc1c(CCC(=O)O)ccc(OCC2=C(c3ccc(F)cc3)CC(F)C2)c1C` (stereo not drawn) [Compound 100], the figures for the EC50 (at Human GPR120 short form; at human GPR40; in assay [1]) were 81 nM, above 5000 nM and 168 nM, respectively.
